Experimental data reported in US9284325B2, “Spectinamides as anti-tuberculosis agents” (UNIVERSITY OF TENNESSEE RESEARCH FOUNDATION, priority 2009, dated 2016).
Where a name gives a salt, the structure may show the parent alone.

How the values were obtained:
[1] = test system: Strep. pneumoniae DAW27 or strain R6; experiment: MIC determination by microbroth dilution; format: cell-based, Streptococcus pneumoniae; details: Streptococcus pneumoniae; Strep. pneumoniae DAW27 or strain R6 (for 1443-1544); read-out: MIC S. pneumoniae
E. coli K12 = experiment: MIC determination by microbroth dilution; format: cell-based, Escherichia coli; details: Escherichia coli, K12
M. tuberculosis H37Rv = experiment: MIC determination by microbroth dilution, anti-tuberculosis activity; format: cell-based, Mycobacterium tuberculosis; details: Mycobacterium tuberculosis, H37RV, 168 h; read-out: MIC
E. coli ribosomes = format: biochemical; details: for relative inhibitory activity on luciferase production: tested at 0.66 and 6.6 μM, FIG. 5; for IC50, 50% inhibition of luciferase biosynthesis in S30 assay: E. coli S30 transcription/translation assay
E. faecalis ATCC 33186 = experiment: MIC determination by microbroth dilution; format: cell-based, Enterococcus faecalis; details: Enterococcus faecalis, ATCC33186
[2] = test system: Strep. pyogenes ATCC 700294; experiment: MIC determination by microbroth dilution; format: cell-based, Streptococcus pyogenes; details: Streptococcus pyogenes, ATCC700294, read-out: MIC S. pyogenes
[3] = test system: S. aureus 8325 or strain ATCC 29213; experiment: MIC determination by microbroth dilution; format: cell-based, Staphylococcus aureus; details: Staphylococcus aureus, ATCC29213; S. aureus 8325 or strain ATCC 29213 (for 1471-1544)
E. coli K12 ΔtolC = experiment: microbe, parasite or virus in culture; format: cell-based; details: Escherichia coli, read-out: MIC E. coli K12 ΔtolC
[4] = test system: Acinetobacter baumannii ATCC 19606; experiment: MIC determination by microbroth dilution; format: cell-based; details: ATCC19606
P. aeruginosa PAO1 = experiment: MIC determination by microbroth dilution; format: cell-based, Pseudomonas aeruginosa; details: Pseudomonas aeruginosa
[5] = test system: Proteus vulgaris ATCC 33420; experiment: MIC determination by microbroth dilution; format: cell-based; details: ATCC33420
B. anthracis Sterne 34F2 = experiment: microbe, parasite or virus in culture; format: cell-based, Bacillus anthracis; details: Bacillus anthracis, STERNE34F2, read-out: MIC B. anthracis 34F2
[6] = test system: Proteus mirabilis ATCC 25933; experiment: MIC determination by microbroth dilution; format: cell-based; details: ATCC25933
[7] = test system: Burkholderia cepacia ATCC 25416; experiment: MIC determination by microbroth dilution; format: cell-based; details: ATCC25416, read-out: MIC B. cepcia
[8] = test system: Strenotrophomonas maltophilia ATCC 13637; experiment: MIC determination by microbroth dilution; format: cell-based
[9] = test system: Klebsiella pneumoniae ATCC 33495; experiment: MIC determination by microbroth dilution; format: cell-based; details: ATCC33495

**Q.** CN[C@@H]1[C@H](O)[C@H](NC)C2O[C@]3(O)C(OC2[C@H]1O)O[C@H](C)C[C@H]3NCc1cccc(OC)c1 (stereo partly drawn) [Compound 1423, 3′-Dihydro-3′-deoxy-4(R)-(3-methoxy)benzylamino spectinomycin Trihydrochloride] was tested. Which MIC [1] did it give?
**A.** Its MIC is 200 mg/L.

**Q.** And the MIC (E. coli K12)?
**A.** Its MIC is 200 mg/L.

**Q.** What about the MIC (M. tuberculosis H37Rv) of the same compound?
**A.** The MIC was 200 mg/L.

**Q.** What about the “relative inhibitory activity on luciferase production” value (“relative inhibitory activity” for short) (E. coli ribosomes) of the same compound?
**A.** Its value is “inhibited well”.

**Q.** What about the MIC (E. faecalis ATCC 33186) of the same compound?
**A.** Its MIC is > 200 mg/L.

**Q.** What about the MIC [2] of the same compound?
**A.** The MIC was 25 mg/L.

**Q.** What about the MIC [3] of the same compound?
**A.** The MIC was 200 mg/L.

**Q.** What about the MIC (E. coli K12 ΔtolC) of the same compound?
**A.** Its MIC is 100 mg/L.

**Q.** And the MIC [4]?
**A.** Its MIC is > 200 mg/L.

**Q.** What about the MIC (P. aeruginosa PAO1) of the same compound?
**A.** Its MIC is > 200 mg/L.

**Q.** And the MIC [5]?
**A.** The MIC was > 200 mg/L.

**Q.** What about the MIC (B. anthracis Sterne 34F2) of the same compound?
**A.** Its MIC is 200 mg/L.

**Q.** And the MIC [6]?
**A.** Its MIC is > 200 mg/L.

**Q.** And the MIC [7]?
**A.** The MIC was > 200 mg/L.

**Q.** What about the MIC [8] of the same compound?
**A.** The MIC was > 200 mg/L.

**Q.** And the MIC [9]?
**A.** Its MIC is > 200 mg/L.

**Q.** What does the source list for CN[C@@H]1[C@H](O)[C@H](NC)C2O[C@]3(O)C(OC2[C@H]1O)O[C@H](C)C[C@H]3NCc1ccco1 (stereo partly drawn) [Compound 1422, 3′-Dihydro-3′-deoxy-4(R)-furan-2yl-methylamino spectinomycin Trihydrochloride]?
**A.** MIC [1]: 50 mg/L; MIC (E. coli K12): 25 mg/L; MIC (M. tuberculosis H37Rv): 200 mg/L; relative inhibitory activity on luciferase production (E. coli ribosomes): inhibited well; MIC (E. faecalis ATCC 33186): 12.5 mg/L; MIC [2]: 200 mg/L; MIC [3]: 25 mg/L; MIC (E. coli K12 ΔtolC): 12.5 mg/L; MIC [4]: > 200 mg/L; MIC (P. aeruginosa PAO1): 25 mg/L; MIC [5]: > 200 mg/L; MIC (B. anthracis Sterne 34F2): 12.5 mg/L; MIC [6]: > 200 mg/L; MIC [7]: > 200 mg/L; MIC [8]: > 200 mg/L; MIC [9]: > 200 mg/L

**Q.** What does the source list for CN[C@@H]1[C@H](O)[C@H](NC)C2O[C@]3(O)C(OC2[C@H]1O)O[C@H](C)C[C@H]3NC(=O)Cc1ccncc1 (stereo partly drawn) [Compound 1413, 3′-Dihydro-3′-deoxy-4(R)-(pyridin-4-yl)acetylamino spectinomycin Dihydrochloride]?
**A.** MIC [1]: > 200 mg/L; MIC (E. coli K12): 200 mg/L; MIC (M. tuberculosis H37Rv): 100 mg/L; IC50, 50% inhibition of luciferase biosynthesis in S30 assay (E. coli ribosomes): 1.92 mg/L; MIC (E. faecalis ATCC 33186): > 200 mg/L; MIC [2]: 200 mg/L; MIC [3]: 50 mg/L; MIC (E. coli K12 ΔtolC): 50 mg/L; MIC [4]: > 200 mg/L; MIC (P. aeruginosa PAO1): > 200 mg/L; MIC [5]: > 200 mg/L; MIC (B. anthracis Sterne 34F2): 200 mg/L; MIC [6]: > 200 mg/L; MIC [7]: > 200 mg/L; MIC [8]: > 200 mg/L; MIC [9]: > 200 mg/L

**Q.** Which results are given for CN[C@@H]1[C@H](O)[C@H](NC)C2O[C@]3(O)C(OC2[C@H]1O)O[C@H](C)C[C@H]3NC(=O)Cc1ccccc1 (stereo partly drawn) [Compound 1398, 3′-Dihydro-3′-deoxy-4(R)-phenylacetylamino spectinomycin Dihydrochloride]?
**A.** MIC [1]: 100 mg/L; MIC (E. coli K12): > 200 mg/L; MIC (M. tuberculosis H37Rv): 6.1 mg/L; IC50, 50% inhibition of luciferase biosynthesis in S30 assay (E. coli ribosomes): 0.78 mg/L; MIC (E. faecalis ATCC 33186): > 200 mg/L; MIC [2]: 50 mg/L; MIC [3]: 100 mg/L; MIC (E. coli K12 ΔtolC): 200 mg/L; MIC [4]: > 200 mg/L; MIC (P. aeruginosa PAO1): 100 mg/L; MIC [5]: > 200 mg/L; MIC (B. anthracis Sterne 34F2): 100 mg/L; MIC [6]: > 200 mg/L; MIC [7]: > 200 mg/L; MIC [8]: > 200 mg/L; MIC [9]: > 200 mg/L

**Q.** CN[C@@H]1[C@H](O)[C@H](NC)C2O[C@]3(O)C(OC2[C@H]1O)O[C@H](C)C[C@H]3NC(=O)c1ccco1 (stereo partly drawn) [Compound 1365, 3′-Dihydro-3′-deoxy-4(R)-furan-2-carboxylicamino spectinomycin Dihydrochloride] was tested. Which MIC [1] did it give?
**A.** Its MIC is > 200 mg/L.

**Q.** What about the MIC (E. coli K12) of the same compound?
**A.** The MIC was > 200 mg/L.

**Q.** What about the MIC (M. tuberculosis H37Rv) of the same compound?
**A.** Its MIC is 100 mg/L.

**Q.** And the “relative inhibitory activity” value (E. coli ribosomes)?
**A.** Its value is “less active than 1329”.

**Q.** What about the MIC (E. faecalis ATCC 33186) of the same compound?
**A.** The MIC was > 200 mg/L.

**Q.** What about the MIC [2] of the same compound?
**A.** Its MIC is > 200 mg/L.

**Q.** What about the MIC [3] of the same compound?
**A.** The MIC was > 200 mg/L.

**Q.** And the MIC (E. coli K12 ΔtolC)?
**A.** Its MIC is 200 mg/L.

**Q.** And the MIC [4]?
**A.** Its MIC is > 200 mg/L.

**Q.** What about the MIC (P. aeruginosa PAO1) of the same compound?
**A.** The MIC was > 200 mg/L.

**Q.** What about the MIC [5] of the same compound?
**A.** The MIC was > 200 mg/L.

**Q.** What about the MIC (B. anthracis Sterne 34F2) of the same compound?
**A.** The MIC was > 200 mg/L.

**Q.** And the MIC [6]?
**A.** Its MIC is > 200 mg/L.

**Q.** What about the MIC [7] of the same compound?
**A.** Its MIC is > 200 mg/L.

**Q.** And the MIC [8]?
**A.** Its MIC is > 200 mg/L.

**Q.** And the MIC [9]?
**A.** The MIC was > 200 mg/L.

**Q.** CN[C@@H]1[C@H](O)[C@H](NC)C2O[C@]3(O)C(OC2[C@H]1O)O[C@H](C)C[C@H]3NC(=O)c1ccccn1 (stereo partly drawn) [Compound 1370, 3′-Dihydro-3′-deoxy-4(R)-pyridin-2-carboxylicamino spectinomycin Dihydrochloride] was tested. Which MIC [1] did it give?
**A.** The MIC was > 200 mg/L.

**Q.** What about the MIC (E. coli K12) of the same compound?
**A.** Its MIC is 200 mg/L.

**Q.** What about the MIC (M. tuberculosis H37Rv) of the same compound?
**A.** The MIC was 100 mg/L.

**Q.** And the “IC50, 50% inhibition of luciferase biosynthesis in S30 assay” value (E. coli ribosomes)?
**A.** The value was 0.89 mg/L.

**Q.** And the “relative inhibitory activity” value (E. coli ribosomes)?
**A.** The value was “less active than 1329”.

**Q.** What about the MIC (E. faecalis ATCC 33186) of the same compound?
**A.** Its MIC is > 200 mg/L.

**Q.** What about the MIC [2] of the same compound?
**A.** Its MIC is > 200 mg/L.

**Q.** And the MIC [3]?
**A.** Its MIC is > 200 mg/L.

**Q.** What about the MIC (E. coli K12 ΔtolC) of the same compound?
**A.** Its MIC is 100 mg/L.

**Q.** And the MIC [4]?
**A.** Its MIC is > 200 mg/L.

**Q.** And the MIC (P. aeruginosa PAO1)?
**A.** The MIC was > 200 mg/L.

**Q.** What about the MIC [5] of the same compound?
**A.** The MIC was > 200 mg/L.

**Q.** And the MIC (B. anthracis Sterne 34F2)?
**A.** Its MIC is 50 mg/L.

**Q.** What about the MIC [6] of the same compound?
**A.** Its MIC is > 200 mg/L.

**Q.** And the MIC [7]?
**A.** The MIC was > 200 mg/L.

**Q.** What about the MIC [8] of the same compound?
**A.** The MIC was > 200 mg/L.

**Q.** What about the MIC [9] of the same compound?
**A.** The MIC was > 200 mg/L.
